# Source: patent publication US12053475B2, “TRPC ion channel inhibitors for use in therapy” (UNIVERSITY OF LEEDS, priority 2017, dated 2024)
# Key:
# TRPC5 [1] = target: T1, TRPC5 (Homo sapiens, UniProt Q9UL62); design: host or cells: HEK239 (so in the source); conditions: HEK239 cells expressing TRPC5; Naylor et al.; cited from earlier work
# T1 sequence (Q9UL62 1-973): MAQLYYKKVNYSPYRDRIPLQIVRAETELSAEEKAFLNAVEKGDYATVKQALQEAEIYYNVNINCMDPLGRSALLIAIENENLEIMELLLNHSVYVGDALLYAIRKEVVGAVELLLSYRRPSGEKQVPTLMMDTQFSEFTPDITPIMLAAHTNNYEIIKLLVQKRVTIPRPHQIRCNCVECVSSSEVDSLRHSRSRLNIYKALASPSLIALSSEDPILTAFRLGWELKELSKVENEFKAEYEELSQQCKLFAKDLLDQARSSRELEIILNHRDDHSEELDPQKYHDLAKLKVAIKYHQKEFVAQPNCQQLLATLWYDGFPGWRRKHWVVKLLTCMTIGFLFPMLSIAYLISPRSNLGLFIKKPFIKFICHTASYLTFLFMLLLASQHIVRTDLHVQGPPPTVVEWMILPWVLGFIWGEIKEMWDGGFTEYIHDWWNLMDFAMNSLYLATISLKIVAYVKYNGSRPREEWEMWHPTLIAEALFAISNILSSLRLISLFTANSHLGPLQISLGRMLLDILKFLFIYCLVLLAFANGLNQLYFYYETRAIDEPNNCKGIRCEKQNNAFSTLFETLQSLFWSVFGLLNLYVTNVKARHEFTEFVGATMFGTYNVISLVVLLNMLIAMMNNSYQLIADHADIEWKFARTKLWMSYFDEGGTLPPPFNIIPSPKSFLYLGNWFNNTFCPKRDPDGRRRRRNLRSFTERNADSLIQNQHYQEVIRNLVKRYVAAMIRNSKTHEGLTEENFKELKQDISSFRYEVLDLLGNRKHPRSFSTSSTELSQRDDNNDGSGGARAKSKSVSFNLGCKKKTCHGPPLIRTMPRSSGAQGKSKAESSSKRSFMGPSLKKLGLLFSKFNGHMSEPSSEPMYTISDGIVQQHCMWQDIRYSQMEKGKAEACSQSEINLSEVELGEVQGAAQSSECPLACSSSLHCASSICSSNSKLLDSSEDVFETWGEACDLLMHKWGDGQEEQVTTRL
# TRPC5 [2] = target: T1, TRPC5; design: host or cells: HEK239 (so in the source); conditions: Mol Pharmacol. 2014; cited from earlier work
# human TRPC4 = target: T2, human TRPC4 (Homo sapiens, UniProt Q9UBN4); assay: Intracellular Ca2+ measurement, HEK 293 cells expressing inducible human TRPC4, activated by (−)-Englerin A; type: cell-based; conditions: 10 μM DE2, 30 min pre-incubation; EA 100 nM; FIG. 12
# T2 construct: expressed in transfected cells
# T2 sequence (Q9UBN4 1-977): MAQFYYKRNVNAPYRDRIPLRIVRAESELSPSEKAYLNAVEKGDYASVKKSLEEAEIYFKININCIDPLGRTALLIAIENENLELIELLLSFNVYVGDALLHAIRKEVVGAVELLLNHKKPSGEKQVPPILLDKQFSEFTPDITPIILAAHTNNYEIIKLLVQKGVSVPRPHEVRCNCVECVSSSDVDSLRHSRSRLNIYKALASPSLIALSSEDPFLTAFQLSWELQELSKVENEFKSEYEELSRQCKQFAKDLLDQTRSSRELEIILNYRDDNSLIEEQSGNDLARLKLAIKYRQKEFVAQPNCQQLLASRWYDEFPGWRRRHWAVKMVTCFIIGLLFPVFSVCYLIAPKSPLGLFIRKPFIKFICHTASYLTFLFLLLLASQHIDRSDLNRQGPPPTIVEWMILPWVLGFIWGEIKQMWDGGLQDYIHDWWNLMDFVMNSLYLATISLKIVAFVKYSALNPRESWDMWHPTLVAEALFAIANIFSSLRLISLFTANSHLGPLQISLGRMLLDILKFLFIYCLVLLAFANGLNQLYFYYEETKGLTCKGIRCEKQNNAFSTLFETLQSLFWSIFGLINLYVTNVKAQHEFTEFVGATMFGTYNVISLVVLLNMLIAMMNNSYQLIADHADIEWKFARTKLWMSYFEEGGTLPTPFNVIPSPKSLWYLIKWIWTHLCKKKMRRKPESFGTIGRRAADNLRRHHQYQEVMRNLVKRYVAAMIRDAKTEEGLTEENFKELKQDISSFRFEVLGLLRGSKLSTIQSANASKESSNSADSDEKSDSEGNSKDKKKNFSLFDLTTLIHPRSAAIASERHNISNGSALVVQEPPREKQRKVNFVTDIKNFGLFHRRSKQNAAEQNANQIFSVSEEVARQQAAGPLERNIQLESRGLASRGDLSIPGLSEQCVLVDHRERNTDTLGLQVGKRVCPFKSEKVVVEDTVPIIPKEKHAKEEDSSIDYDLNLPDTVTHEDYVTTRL
# Method: (§1) Cell culture Mouse stromal vascular fraction (SVF) cells from subcutaneous adipose tissue were isolated by mincing of the tissue followed by enzymatic digestion with 0.3 mg·mL^−1 Collagenase type II (Sigma), 0.3 mg·mL^−1 Collagenase type IV (Sigma), 2 mg·mL^−1 BSA (Sigma), 0.08 mg·mL^−1 DNase I (Sigma) and 0.04 mg·mL^−1 Dispase (Thermo Fisher Scientific) in serum free RPMI 1640 media (Gibco) for 45 min at 37° C. in 95% O2 and 5% CO2 environment. Isolated cells were centrifuged and processed through a 100 μm cell strainer. Following centrifugation, the cell pellet was reconstituted in full RPMI 1640 media containing 15% fetal calf serum and 1% penicillin-streptomycin (Gibco). Media was changed on the following day to remove non-adherent cells. […]
# (§2) Intracellular Ca^2+ measurement HEK 293 cells containing stable incorporation of inducible TRPC4 or TRPC5 expression were seeded into 96-well clear-bottomed poly-D-lysine-coated black plates (Corning Life Sciences) at 90% confluence 24 hr before the experiment. […] The Fura-2-AM fluorescence was recorded using a 96-well fluorescence plate reader FlexStation II (Molecular Devices) at excitation wavelengths of 340 nm and 380 nm, and the emitted light was collected at 510 nm. […]
# [3] = tested on: adipocytes from subcutaneous white adipose tissue of mice; assay: Respirometry (oxygen consumption) in adipocytes; type: cell-based; conditions: 10 μM DE2, 24 hr pre-incubation; vs DMSO; FIG. 13
# Method: Protein preparation and immunoblotting Proteins were isolated from cells and tissues using radio-immunoprecipitation assay (RIPA) buffer containing (in mM) 150 NaCl, 20 Tris HCl, 1 EGTA, 1 EDTA, 1% NP-40, 0.1% sodium dodecyl sulfate (SDS) and 1% sodium deoxylate. Complete™ protease inhibitor (Roche Life Science) was added into RIPA fresh before use in accordance with the manufacturer's instructions. Immunoblotting was carried out under standard protocols with primary antibodies anti-UCP1 (1:500, ab23841; Abcam), Cytochrome C (1:4000, ab110325; Abcam), Akt (pan) (1:1000, 4691; Cell Signaling) and Phospho-Akt (Ser473) (1:500, 4060; Cell Signaling). […] The cells were inoculated into the OROBOROS Oxygraph-2k chambers and oxidative phosphorylation analyses were performed using the mitochondrial substrate-uncoupler-inhibitor-titration protocol consisting of: substrate activation using sodium pyruvate, inhibition of ATP synthase using oligomycin, uncoupling via sequential addition of FCCP to maximum oxygen flux, mitochondria complex I and III inhibition using Rotenone and Antimycin A. Traces were analyzed using DatLab 6 Software (OROBOROS), measuring for routine state respiration (routine), mitochondrial leak (leak), maximum uncoupling capacity of the electron transport system (ETS) and rotenone and antimycin A-inhibited residual oxygen consumption (ROX). […]
# UCP1 and Cytochrome C = assay: mRNA analysis of UCP1 and Cytochrome C expression in adipocytes (beiging markers); type: cell-based, mice; conditions: 10 μM DE2, 24 hr pre-incubation; vs DMSO; FIG. 14
# Method: Quantitative RT-PCR analysis RNA from cell and tissue samples was obtained using TRIzol reagent (Thermo Fisher Scientific). 1 μg RNA was reverse-transcribed using High-Capacity cDNA Reverse Transcription Kit (Applied Biosystems) and RT-PCR analysis was performed using SYBR Select Masters Mix (Thermo Fisher Scientific) and LightCycler® 480 (Roche Life Science). The primers used are tabulated in Supplementary Table 1^34. Relative fold-change in expression was calculated using the comparative cycle method (2^−ΔΔCt) Mouse Gapdh gene was used as the reference.
# To determine the influence of DE2 and C31 on expression of markers of white-to-brown adipocyte phenotypic switching, transcript accumulation of UCP1 and Cytochrome C was measured by mRNA analysis in adipocytes from subcutaneous white adipose tissue (n=4-5) of C4WT, C5WT, C4KO, and C5KO mice. Cells were pre-incubated with (24 hr) and maintained in 10 μM DE2 or 100 nM C31 where indicated. The vehicle control was DMSO.
# TRPC5 [4] = target: T1, TRPC5; assay: Intracellular Ca2+ measurement, HEK 293 cells expressing inducible human TRPC5, activated by (−)-Englerin A; type: cell-based; design: expressed in transfected cells; conditions: 10 μM DE2, 30 min pre-incubation; EA 100 nM; FIG. 12
# Method: as §1, §2
smiles,measurement,setting,value
Oc1ccc(C=Cc2cc(O)cc(O)c2)cc1 [resveratrol],inhibition of TRPC5 ion channel function,TRPC5 [1],inhibitors
"Clc1ccc(Cn2c(CN3CCCC3)nc3ccccc32)cc1 [Clemizole, clemizole]",inhibition of TRPC5,TRPC5 [2],potent and selective inhibitor
O=c1c(O)c(-c2ccccc2)oc2cc(O)cc(O)c12 [galangin],inhibition of TRPC5 ion channel function,TRPC5 [1],inhibitors
O=C1O[C@H]([C@@H](O)CO)C(O)=C1O [vitamin C],inhibition of TRPC5 ion channel function,TRPC5 [1],inhibitors
"CCN(CC)Cc1nc2ccccc2n1Cc1ccc(Cl)cc1 [DE2, ({1-[(4-Chlorophenyl)methyl]-1H-benzimidazol-2-yl}methyl)diethylamine]",inhibition of TRPC4 channels (intracellular Ca2+),human TRPC4,demonstrated inhibition
same,adipocyte mitochondrial respiration,[3],increases
same,adipocyte UCP1/Cytochrome C expression,UCP1 and Cytochrome C,increases
same,inhibition of TRPC5 channels (intracellular Ca2+),TRPC5 [4],demonstrated inhibition
